Patent publication US20240057638A1, “COMPOSITIONS FOR REDUCING METHANE EMISSION, METHODS FOR IMPROVING THE METABOLIC EFFICIENCY OF RUMINANT ANIMALS AND METHANOGENESIS INHIBITOR ADMINISTRATION” (MOOTRAL INNOVATIONS LIMITED, priority 2020, published 2024)

System: Methanococcus maripaludis
Assay: Inhibition of methane production by Methanococcus maripaludis culture (pressure drop by manometer after 24 h)
Assay type: cell-based
Conditions: for % Inhibition Gas: 37° C.
Protocol: For this experiment, bromoform was prepped at 100 mM by adding 8.75 μl bromoform to 991 μl DMSO. This was diluted 10x diluted to generate a 10 mM solution and further diluted to generate 0.12- and 0.156-mM stock solutions. Allicin stock solutions were prepared by adding 48.6 μl allicin to 951.4 μl DMSO to make a 300 mM stock solution and 32.5 μl allicin to 967.5 μl DMSO to make a 200 mM stock solution. The experiment was set up by adding 5 ml of M141 medium (https://www.dsmz.de/microorganisms/medium/pdf/DSMZ_Medium141.pdf) to a screw cap Hungate tube followed by the addition of 5 μl allicin and/or 5 μl bromoform or 10 μl DMSO as follows: • Tube 1: DMSO (10 μl) • Tube 2: Bromoform (5 μl 0.120 mM) (120 nM final)+5 μl DMSO • Tube 3: Bromoform (5 μl 0.156 mM) (156 nM final)+5 μl DMSO • Tube 4: Allicin (5 μl 200 mM) (200 μM final)+5 μl DMSO • Tube 5: Allicin (5 μl 300 mM) (300 μM final)+5 μl DMSO • Tube 6: Bromoform (5 μl 0.120 mM) (120 nM final)+Allicin (5 μl 200 mM) (200 μM final) • Tube 7: Bromoform (5 μl 0.120 mM) (120 nM final)+Allicin (5 μl 300 mM) (300 μM final) • Tube 8: Bromoform (5 μl 0.156 mM) (156 nM final)+Allicin (5 μl 200 mM) (200 μM final) • Tube 9: Bromoform (5 μl 0.156 mM) (156 nM final)+Allicin (5 μl 300 mM) (300 μM final)
After the addition of the test substances, 500 μl of an overnight M. maripaludis culture was added to each reaction tube. Each tube was gassed with 80% H2/20% CO2 to 240 kPa and incubated at 37° C. for 24 h.
After the 24 h incubation the pressure inside the tube was measured using a manometer. Given that 5 moles of H2/CO2 are consumed to generate 1 mole of CH4 the drop in pressure observed was used to calculate the amount of methane by the control and test reactions from which a percent inhibition was calculated.
For this experiment, bromoform was prepped at 100 mM by adding 8.75 μl bromoform to 991 μl DMSO. This was diluted 10× diluted to generate a 10 mM solution and further diluted to generate 0.10- and 0.156-mM stock solutions. The sample was prepared by adding 245 mg NXRH214 powder to 35 ml M141 medium (https://www.dsmz.de/microorganisms/medium/pdf/DSMZ_Medium141.pdf) to generate a 7 mg/ml stock solution. NXRH214 powder is a garlic powder (allicin) and citrus extract (polyphenol flavonoid mix) with a ratio of 93:7, where the flavonoid mix comprises mainly naringin and neohesperidin.

[1] = Methanococcus maripaludis, read-out: % Inhibition Gas

SMILES	% Inhibition Gas (Allicin 200 μM with DMSO) [%]	% Inhibition Gas (Allicin 300 μM with DMSO) [%]	inhibition at 0.1 µM [1] [%]	inhibition at 0.156 µM [1] [%]
C=CCS[S@@+]([O-])CC=C (stereo in doubt) [Allicin, allicin]	0	19	–	–
BrC(Br)Br [Bromoform, bromoform]	–	–	0	0.5
